Like-named read-outs stand apart in the source and are kept apart here.
Tests used:
Type in all cases: cell-based, Escherichia coli
EKO-35 araC::mdtEF Pore = assay: MIC susceptibility profiling, porinated efflux platform; details: for Fold changes of MICs: EKO-35 araC::mdtEF Pore compared to EKO-35-Pore; for MIC: Escherichia coli, Table 14A, porinated, technical duplicate, read-out: Minimum inhibitory concentration, EKO-35 araC::mdtEF Pore
Summary of the method: (§1)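 MIC values come from background-corrected OD600 readings (pre-incubation OD subtracted) after 18 h at 37 °C and 900 rpm in MHB II. Compounds were tested in duplicate as 2-fold dilutions. The inoculum came from 18 h LB cultures adjusted to OD600 ~1.0 and diluted 1/2000, and the pore-bearing strains were vancomycin-checked beforehand.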

EKO-35 araC::mdtBC Pore = assay: as above; details: for Fold changes of MICs: EKO-35 araC::mdtBC Pore compared to EKO-35-Pore; for MIC: Escherichia coli, EKO-35 araC::mdtBC Pore, technical duplicate, read-out: Minimum inhibitory concentration
Summary of the method: as §1

EKO-35 araC::acrB Pore = assay: as above; details: for Fold changes of MICs: EKO-35 araC::acr-B Pore compared to EKO-35-Pore
Summary of the method: as §1

EKO-35 araC::mdtEF = assay: MIC susceptibility profiling, efflux platform; details: for Fold change of MICs: EKO-35 araC::mdtEF compared to EKO-35; for MIC: Escherichia coli, Table 13A, non-porinated, technical duplicate, read-out: Minimum Inhibitory Concentration, EKO-35 araC::mdtEF
Summary of the method: (§2)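 Overnight LB cultures were grown at 37 °C with aeration, then washed into PBS, pH 7.4, to OD600 ~1.0. A 1/2000 dilution in MHB II was exposed to compound dilution series for 18 h at 37 °C. The MIC was taken from corrected OD600.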

EKO-35 araC::macAB = assay: MIC susceptibility profiling, efflux platform; details: for Fold change of MICs: EKO-35 araC::macAB compared to EKO-35
Summary of the method: as §2

EKO-35 araC::acrD = assay: MIC susceptibility profiling, efflux platform; details: for Fold change of MICs: EKO-35 araC::acrD compared to EKO-35; for MIC: Escherichia coli, Table 13A, non-porinated, technical duplicate, read-out: Minimum Inhibitory Concentration, EKO-35 araC::acrD
Summary of the method: as §2

[1] = tested on: EKO-35 araC::mexCD (MexCD from P. aeruginosa); assay: MIC susceptibility profiling, efflux platform; details: for Fold change of MICs: EKO-35 araC::mexCD compared to EKO-35; for MIC: Table 13B, non-porinated, technical duplicate, read-out: Minimum Inhibitory Concentration, EKO-35 araC::mexCD
Summary of the method: as §2

EKO-35 araC::mdtBC = assay: MIC susceptibility profiling, efflux platform; details: for Fold change of MICs: EKO-35 araC::mdtBC compared to EKO-35; for MIC: Escherichia coli, Table 13B, non-porinated, technical duplicate, read-out: Minimum Inhibitory Concentration, EKO-35 araC::mdtBC
Summary of the method: as §2

EKO-35 araC::acrEF = assay: MIC susceptibility profiling, efflux platform; details: for Fold change of MICs: EKO-35 araC::acrEF compared to EKO-35; for MIC: Escherichia coli, Table 13A, non-porinated, technical duplicate, read-out: Minimum Inhibitory Concentration, EKO-35 araC::acrEF
Summary of the method: as §2

EKO-35 araC::acrBD408A = assay: MIC susceptibility profiling, efflux platform; details: for Fold change of MICs: EKO-35 araC::acrBD408A compared to EKO-35; for MIC: Escherichia coli, Table 13B, non-porinated, technical duplicate, read-out: Minimum Inhibitory Concentration, EKO-35 araC::acrBD408A
Summary of the method: as §2

EKO-35 araC::emrKY = assay: MIC susceptibility profiling, efflux platform; details: for Fold change of MICs: EKO-35 araC::emrKY compared to EKO-35
Summary of the method: as §2

EKO-35 araC::emrAB = assay: MIC susceptibility profiling, efflux platform; details: for Fold change of MICs: EKO-35 araC::emrAB compared to EKO-35; for MIC: Escherichia coli, Table 13B, non-porinated, technical duplicate, read-out: Minimum Inhibitory Concentration, EKO-35 araC::emrAB
Summary of the method: as §2

EKO-35 araC::acrB = assay: MIC susceptibility profiling, efflux platform; details: for Fold change of MICs: EKO-35 araC::acrB compared to EKO-35; for MIC: Escherichia coli, Table 13A, non-porinated, technical duplicate, read-out: Minimum Inhibitory Concentration, EKO-35 araC::acrB
Summary of the method: as §2

EKO-35-Pore = assay: MIC susceptibility profiling, porinated strain; details: for Fold changes of MICs: EKO-35-Pore compared to EKO-35-Pore (reference); for MIC: Escherichia coli, technical duplicate
Summary of the method: as §1

E. coli EKO-35 = assay: microbe, parasite or virus in culture; details: for Fold change of MICs: EKO-35 compared to EKO-35 (reference); for MIC: Escherichia coli, EKO35, technical duplicate
Summary of the method: as §2

[2] = tested on: wild-type E. coli K-12 str. BW25113; assay: microbe, parasite or virus in culture; details: Escherichia coli, BW25113, technical duplicate
Summary of the method: as §2

E. coli ΔtolC = assay: microbe, parasite or virus in culture; details: for MIC: Escherichia coli, 18 h, read-out: Minimum Inhibitory Concentration, ΔtolC; for Minimum inhibitory concentration (MIC), ΔtolC: Table 10, without pore, technical duplicate
Summary of the method: as §2

ΔtolC-Pore = assay: microbe, parasite or virus in culture; details: for MIC: Escherichia coli, 18 h, read-out: Minimum inhibitory concentration, ΔtolC-Pore; for Minimum inhibitory concentration (MIC), Pore ΔtolC: Table 10, with pore, technical duplicate
Summary of the method: as §1

wild-type (WT) K-12-Pore = assay: microbe, parasite or virus in culture; details: Escherichia coli, technical duplicate
Summary of the method: as §1

[3] = Table 10, with pore, read-out: Minimum inhibitory concentration (MIC), Pore EKO-35
[4] = Table 14A, porinated, read-out: Minimum inhibitory concentration, EKO-35-Pore
[5] = Table 10, without pore, read-out: Minimum inhibitory concentration (MIC), EKO-35
[6] = Table 13A, non-porinated, read-out: Minimum Inhibitory Concentration, EKO-35
[7] = Table 10, without pore, read-out: Minimum inhibitory concentration (MIC), K-12
[8] = Table 13A, non-porinated, read-out: Minimum Inhibitory Concentration, K-12
[9] = Table 10, with pore, read-out: Minimum inhibitory concentration (MIC), Pore K-12

Compound	Fold changes of MICs (EKO-35 araC::mdtEF Pore) [fold]	MIC (EKO-35 araC::mdtEF Pore) [µg/mL]	Fold changes of MICs (EKO-35 araC::mdtBC Pore) [fold]	MIC (EKO-35 araC::mdtBC Pore) [µg/mL]	Fold changes of MICs (EKO-35 araC::acrB Pore) [fold]	Fold change of MICs (EKO-35 araC::mdtEF) [fold]	MIC (EKO-35 araC::mdtEF) [µg/mL]	Fold change of MICs (EKO-35 araC::macAB) [fold]	Fold change of MICs (EKO-35 araC::acrD) [fold]	MIC (EKO-35 araC::acrD) [µg/mL]	Fold change of MICs [1] [fold]	MIC [1] [µg/mL]	Fold change of MICs (EKO-35 araC::mdtBC) [fold]	MIC (EKO-35 araC::mdtBC) [µg/mL]	Fold change of MICs (EKO-35 araC::acrEF) [fold]	MIC (EKO-35 araC::acrEF) [µg/mL]	Fold change of MICs (EKO-35 araC::acrBD408A) [fold]	MIC (EKO-35 araC::acrBD408A) [µg/mL]	Fold change of MICs (EKO-35 araC::emrKY) [fold]	Fold change of MICs (EKO-35 araC::emrAB) [fold]	other results
CC1(C)S[C@@H]2[C@H](NC(=O)[C@H](N)c3ccccc3)C(=O)N2[C@H]1C(=O)O [ampicillin]	1	1.56	1	0.781	8	1	25	1	4	100	1	25	1	25	2	50	1	25	1	1	MIC (EKO-35 araC::emrKY; Escherichia coli, Table 13B, non-porinated, technical duplicate, read-out: Minimum Inhibitory Concentration, EKO-35 araC::emrKY): 25 µg/mL; MIC (EKO-35 araC::emrAB): 25 µg/mL; Fold change of MICs (EKO-35 araC::acrB): 4 fold; MIC (EKO-35 araC::acrB): 100 µg/mL; Fold changes of MICs (EKO-35-Pore): 1 fold; MIC (EKO-35-Pore; [3]): 1.56 µg/mL; MIC (EKO-35-Pore; [4]): 1.56 µg/mL; Fold change of MICs (E. coli EKO-35): 1 fold; MIC (E. coli EKO-35; [5]): 25 µg/mL; MIC (E. coli EKO-35; [6]): 25 µg/mL; MIC [2, 7]: 100 µg/mL; MIC [2, 8]: 100 µg/mL; MIC (E. coli ΔtolC): 25 µg/mL; Minimum inhibitory concentration (MIC), ΔtolC (E. coli ΔtolC): 25 µg/mL; MIC (ΔtolC-Pore): 1.56 µg/mL; Minimum inhibitory concentration (MIC), Pore ΔtolC (ΔtolC-Pore): 1.563 µg/mL; MIC (wild-type (WT) K-12-Pore; [9]): 12.5 µg/mL
CC[C@H]1OC(=O)[C@H](C)[C@@H](O[C@H]2C[C@@](C)(OC)[C@@H](O)[C@H](C)O2)[C@H](C)[C@@H](O[C@@H]2O[C@H](C)C[C@H](N(C)C)[C@H]2O)[C@](C)(O)C[C@@H](C)CN(C)[C@H](C)[C@@H](O)[C@]1(C)O [azithromycin]	4	0.195	1	0.049	4	8	6.25	4	1	0.781	4	3.12	1	0.781	8	6.25	1	0.781	1	1	MIC (EKO-35 araC::acrB Pore; Escherichia coli, Table 14A, porinated, technical duplicate, read-out: Minimum inhibitory concentration, EKO-35 araC::acrB Pore): 0.195 µg/mL; MIC (EKO-35 araC::macAB; Escherichia coli, Table 13B, non-porinated, technical duplicate, read-out: Minimum Inhibitory Concentration, EKO-35 araC::macAB): 3.12 µg/mL; efflux pump-mediated resistance vs EKO-35 (EKO-35 araC::macAB; MacAB): specific; MIC (EKO-35 araC::emrAB): 0.781 µg/mL; Fold change of MICs (EKO-35 araC::acrB): 16 fold; MIC (EKO-35 araC::acrB): 12.5 µg/mL; Fold changes of MICs (EKO-35-Pore): 1 fold; MIC (EKO-35-Pore; [3]): 0.049 µg/mL; MIC (EKO-35-Pore; [4]): 0.049 µg/mL; Fold change of MICs (E. coli EKO-35): 1 fold; MIC (E. coli EKO-35; [5]): 0.781 µg/mL; MIC (E. coli EKO-35; [6]): 0.781 µg/mL; MIC [2, 7]: 6.25 µg/mL; MIC [2, 8]: 6.25 µg/mL; MIC (E. coli ΔtolC): 0.781 µg/mL; Minimum inhibitory concentration (MIC), ΔtolC (E. coli ΔtolC): 0.781 µg/mL; MIC (ΔtolC-Pore): 0.049 µg/mL; Minimum inhibitory concentration (MIC), Pore ΔtolC (ΔtolC-Pore): 0.049 µg/mL; MIC (wild-type (WT) K-12-Pore; [9]): 0.391 µg/mL; MIC (wild-type (WT) K-12-Pore; Table 14A, porinated, read-out: Minimum inhibitory concentration, K-12 (WT)-Pore): 0.391 µg/mL
